The values that follow come from publication PMC12131194, “Rational design, synthesis, and evaluation of novel polypharmacological compounds targeting NaV1.5, KV1.5, and K2P channels for atrial fibrillation” (The Journal of Biological Chemistry, 2025).

The structures appear in SMILES notation. Several values for one entry are separate records, joined by “and”; a condition that tells them apart may be missing. Identical values can stand only once.

For one experiment, the target named is human TASK-1 (Homo sapiens, UniProt O14649). Description: TEVC recordings in X. laevis oocytes, TASK-1. Conditions: for Ionic current block IK2P: from inhibition curves, used for simulation. Further details: human TASK-1 (KCNK3, NM_002246); expressed in transfected cells; host or cells: Xenopus laevis oocytes injected with cRNA. The format is cell-based. How it is done: The two-electrode voltage clamp (TEVC) technique was used for electrophysiology tests. Channels were expressed in Xenopus laevis oocytes. The initial channel-blocking potential was assessed at 100 μM for the 10 synthesized compounds on TASK-1 and KV1.5 channels.
To obtain X. laevis oocytes, the frogs were anesthetized with 2 g/L of tricaine methanesulfonate, and the ovarian lobes were mechanically separated with forceps. The oocytes were incubated for 120 min in an OR2 solution containing in mM: NaCl 82.5, KCl 2, MgCl2 1, HEPES 5 (pH 7.5) supplemented with 2 mg/ml of collagenase II (Sigma) to remove residual connective tissue and obtain individual oocytes. Subsequently, the oocytes were washed with a ND96 solution containing in mM: NaCl 96, KCl 2, CaCl2 1.8, MgCl2 1, HEPES 5 (pH 7.5, adjusted with NaOH) and stored at 18 °C in ND96 solution supplemented with 1 ml of gentamicin (50 mg/L), sodium pyruvate (275 mg/L) and (90 mg/L) theophylline (inhibits further oocyte maturation) before and after RNA injection.
(§1) In order to overexpress the channel in the oocyte, each of the channels to be measured was subcloned (complementary DNA (cDNA); human TASK-1 (KCNK3, NM_002246), h KV1.5 (KCNA5, NM_002234), h NaV1.5 (hH1, M77235), TASK-4/TALK-2 (KCNK17, NM_AF358910), TREK-1 (KCNK2, AF004711) and Kir2.1 (KCNJ2, NM_017296) into pSGEM, pBF1 or pSP64 expression vector, and the cDNA was linearized with NheI or MluI. Complementary RNA (cRNA) was synthesized with the mMESSAGE mMACHINE-Kit (Ambion). The quality of the cRNA was tested on an agarose gel by electrophoresis. cRNA was quantified using a UV-Vis spectrophotometer (NanoDrop 2000). Subsequently, the channel was transfected in the oocytes in stages V and VI, for which 50 nl (TASK-1, KV1.5 or TREK-1), 10 ng (NaV1.5 or TASK-4) o 2.5 ng (Kir2.1) per oocyte of cRNA was injected with a NanojectII microinjector (Drummond Scientific). The oocytes were stored in 24-well plates for 24 to 48 h at 18 °C. After this time, the overexpression of each channel was monitored through electrophysiology.
Two-electrode voltage clamp measurements were performed 24 or 48 h after cRNA injection at room temperature (20–22 °C) in ND96 recording solution with a TurboTEC-10CD (npi) amplifier and a Digidata 1550B (for TASK-1 and KV1.5) and 1440A (for NaV1.5) A/D converter from Axon Instruments. Micropipettes were fabricated from GB 150 TF-8P borosilicate glass capillaries (Science Products) elongated in a DMZ-Universal Puller (Zeitz, Germany). […] ND96 was used as bath solution. Data acquisition was performed using Clampex 10 software (Axon Instruments), and data were analyzed with ClampFit 10 (Axon Instruments) and Origin 7 (Origin Lab Corporation).
For compound inhibition testing, from a holding potential of −80 mV a first test pulse to 0 mV of 1 s duration was followed by a repolarization step at −80 mV for 1 s, directly followed by another 1 s test pulse at +40 mV. The sweep time interval was 10 s for KV1.5 and TASK-1 channels. For the NaV1.5 channel, the block was analyzed with voltage steps from a holding potential of −80 mV. A first depolarizing pulse to −30 mV of 50 ms duration was applied, followed by a 5 ms step to −80 mV. The sweep time interval was 5 s. The compounds were applied at different concentrations to determine the half-maximal inhibitory concentration (IC50), using a fit to the Hill equation.
To test for a putative voltage-dependence of the block by the compound 6f in KV1.5, a 1.5 s voltage step protocol from −80 to +80 mV with +20 mV increments was used. The holding potential was −80 mV and the sweep time interval was 10 s. Currents were analyzed at the end of the voltage pulse. For TASK-1, voltage-dependence of block was probed using a high-potassium solution (KD96) containing in mM: KCl 96, NaCl 2, CaCl2 1.8, MgCl2 1, HEPES 5, (pH 7.5, adjusted with KOH). From a holding potential of 0 mV, voltage was stepped from −80 mV to +80 mV for 1.5 s in +20 mV steps every 10 s. […]

Another experiment deals with T1, TREK-1 (Homo sapiens, UniProt O95069).
T1 construct: expressed in transfected cells; host or cells: Xenopus laevis oocytes injected with cRNA
T1 sequence (O95069 1-426): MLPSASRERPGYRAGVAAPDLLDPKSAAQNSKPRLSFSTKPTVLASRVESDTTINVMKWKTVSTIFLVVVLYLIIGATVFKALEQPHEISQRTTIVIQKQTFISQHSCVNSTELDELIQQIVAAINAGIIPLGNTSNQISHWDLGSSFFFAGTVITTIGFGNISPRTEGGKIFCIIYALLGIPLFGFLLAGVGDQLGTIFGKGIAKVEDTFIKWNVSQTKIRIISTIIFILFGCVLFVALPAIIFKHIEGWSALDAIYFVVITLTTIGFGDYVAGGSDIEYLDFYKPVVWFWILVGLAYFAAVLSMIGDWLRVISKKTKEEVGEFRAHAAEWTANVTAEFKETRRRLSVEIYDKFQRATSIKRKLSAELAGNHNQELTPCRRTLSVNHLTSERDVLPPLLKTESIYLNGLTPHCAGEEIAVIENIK
Kind of experiment: TEVC selectivity in X. laevis oocytes, TREK-1. Particulars: mean ± SD, n = 4, read-out: Effect on TREK-1 (inhibition; negative = activating). The format is cell-based. On the procedure:
After confirming compound 6f simultaneous blockade of TASK-1, KV1.5, and NaV1.5, other cardiac channels (Kir2.1, TREK-1, TASK-4) were tested for selectivity at 100 μM (Fig. 8).
To obtain X. laevis oocytes, the frogs were anesthetized with 2 g/L of tricaine methanesulfonate, and the ovarian lobes were mechanically separated with forceps. The oocytes were incubated for 120 min in an OR2 solution containing in mM: NaCl 82.5, KCl 2, MgCl2 1, HEPES 5 (pH 7.5) supplemented with 2 mg/ml of collagenase II (Sigma) to remove residual connective tissue and obtain individual oocytes. […]
as §1, with “Subsequently, the channel was transfected in the oocytes in stages V and VI, for which 50 nl (TASK-1, KV1.5 or TREK-1), 10 ng (NaV1.5 or TASK-4) o 2.5 ng (Kir2.1) per oocyte of cRNA was injected with a NanojectII microinjector (Drummond Scientific). The oocytes were stored in 24-well plates for 24 to 48 h at 18 °C.” left out, “electrophysiology. […]” for “electrophysiology.”

Chain of human TASK-1 (O14649 whole entry): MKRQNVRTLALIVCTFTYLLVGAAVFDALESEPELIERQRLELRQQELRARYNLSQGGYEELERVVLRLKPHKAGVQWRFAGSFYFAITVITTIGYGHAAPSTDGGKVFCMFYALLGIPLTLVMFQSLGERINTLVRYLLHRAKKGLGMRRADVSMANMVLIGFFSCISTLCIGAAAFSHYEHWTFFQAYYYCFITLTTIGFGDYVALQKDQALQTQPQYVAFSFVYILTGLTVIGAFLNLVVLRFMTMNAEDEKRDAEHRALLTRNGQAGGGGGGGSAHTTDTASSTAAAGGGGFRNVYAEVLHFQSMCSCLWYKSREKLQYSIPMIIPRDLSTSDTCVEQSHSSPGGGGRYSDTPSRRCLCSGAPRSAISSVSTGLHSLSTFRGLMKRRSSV

Broadly, the inhibition is the change of the read-out against control, counted positive when it falls. In general, IC50 refers to the concentration at which inhibition is half-maximal. As to `CCCCN(CCCC)CC(=O)Nc1ccc(OC)cc1OC` [Compound 6f, 2-(dibutylamine)-N-(2,4-dimethoxiphenyl)acetamide], the “Ionic current block IK2P” value on human TASK-1 (1 μM) is 58%; at human TASK-1 (10 μM) it was 75%; on human TASK-1 (100 μM) it was 85%. Besides, the inhibition at 100 µM was 84.1 ± 10.7% on human TASK-1 (100 μM, +40 mV, oocytes, mean ± SD) and -8.71% at TREK-1. Also, the IC50 on human TASK-1 (X. laevis oocytes, TEVC, block at +40 mV) is ~0.31 µM and 0.31 µM. Further, the “Voltage-dependence of block of TASK-1” value on human TASK-1 (oocytes, KD96 solution) was “no significant voltage-dependence”.
